≈ marks a conversion by molar mass, not a printed value.
How the values were obtained:
Format in all cases: functional
Conditions in all cases: read-out: ED50 (the source's name)
[1] = tested on: SK-OV-3; experiment: Cytotoxicity against human SKOV3 cells
[2] = tested on: XF498; experiment: Cytotoxicity against human XF498 cells
[3] = tested on: A549; experiment: Cytotoxicity against human A549 cells
[4] = tested on: HCT-15; experiment: Cytotoxicity against human HCT15 cells
[5] = tested on: SK-MEL-2; experiment: Cytotoxicity against human SK-MEL-2 cells

SMILES | EC50 [1] | EC50 [2] | EC50 [3] | EC50 [4] | EC50 [5]
COC1=C(C(C)C)C(=O)c2c(O)cc3c(c2C1=O)C=CC(=O)C3(C)C [AGASTAQUINONE] | 12.8 µg/mL (≈ 37.6 µM) | 1.8 µg/mL (≈ 5.29 µM) | 6.8 µg/mL (≈ 20 µM) | 5.2 µg/mL (≈ 15.3 µM) | 4.1 µg/mL (≈ 12 µM)
COC1=C(C(C)C)C(=O)c2c(O)cc3c(c2C1=O)C=C/C(=N\O)C3(C)C | 18.7 µg/mL (≈ 52.6 µM) | 8.5 µg/mL (≈ 23.9 µM) | 9.1 µg/mL (≈ 25.6 µM) | 7 µg/mL (≈ 19.7 µM) | 11.8 µg/mL (≈ 33.2 µM)

From ChEMBL document CHEMBL1150090, “Agastaquinone, a new cytotoxic diterpenoid quinone from Agastache rugosa” (1995)
